Test [1] addresses T1, PfFNT wt-GFP (Plasmodium falciparum, UniProt O77389).
T1 construct: The DNA of full-length PfFNT from Plasmodium falciparum 3D7 was cloned as a C-terminal GFP fusion; expressed in transfected cells; intact cells for imaging, LMNG-solubilized membranes or lysates for FCCS
In words: Time-resolved FCCS binding kinetics. The method, then:
To complete our biophysical interaction analysis, we determined the rate constants of both labeled inhibitors to PfFNT wildtype. This is of relevance because inhibitors with similar affinities but different association and dissociation rates can show different activity profiles. […] For measuring the kinetics of direct interactions between PfFNT and the labeled inhibitor molecules, we applied the target at a concentration of 10 nM and chose ligand concentrations that exceeded the number of target molecules by […]. In this way, we ensured that throughout the course of the kinetic measurement, the depletion of free ligands remained insignificant. First, time resolved binding curves were recorded for ligand concentrations of 148, 133, 115, 100, 81, 76, 44, 25 nM (BH296) and 120, 102, 76, 74, 65, 58, 46, 32 nM (BH267.meta), respectively, to obtain kobs values (Figure 5). Then kon and koff values were calculated by linear regression. Both inhibitors bind and dissociate with equal rate constants (Table 3) and are characterized by a rapid association. Equilibrium is reached within less than 1 min at nanomolar inhibitor concentrations. To cross-validate the reliability of our kinetic determinations, we compared the KD values derived from saturation binding assays with affinities deduced from the kinetic rate constants by dividing koff by kon.
Figure 5 Kinetic studies of the fluorescent probes BH296-DY647 and BH267.meta-DY647 with PfFNT-GFP by FCCS. Time resolved measurements of the interactions were carried out to obtain kobs-values. The kobs-values were plotted versus concentrations of the fluorescent probe. The solid line represents the best linear regression, and kon and koff of both fluorescent probes were estimated from the slope and y-intercept, respectively. kon and koff values of BH296-DY647 and BH267.meta-DY647 are summarized in Table 3.
(§1) FCCS measurements were conducted in 384-well glass-bottom plates (cat. no PS96B-G175, SWISSCI, Switzerland) using an Insight plate reader (Evotec Technologies, Germany) fitted with a U-Apo300 40x water immersion lens, NA 1.15 (Olympus, Japan). The 488 nm laser line of an argon-ion laser and the light of a 633 nm helium–neon laser were used for excitation. Fluorescence fluctuations were recorded for 8 s with 12 repetitions and analyzed afterward using FCS+plus Analyze 1.1P (Evotec technologies, Version 1.2.5g). FCCS analysis was carried out as described previously. Briefly, for measuring the dissociation constant (KD), a titration series of 12 dilutions was prepared, where the concentration of the lysates obtained from HEK cells expressing GFP-fusions of PfFNT WT and G107S was kept constant, and the concentration of the labeled binding partner (BH296-DY647 and BH267.meta-DY647, respectively) was varied. The IC50 values were calculated by plotting the concentration from the dual labeled complex against the concentration of the competitor titrated over a concentration range from 10 µM to 10 pM. Samples were incubated for 1 h at room temperature prior to FCCS measurements to allow the formation of drug target complexes. From the resulting IC50 values, the Ki values were obtained by application of the Cheng Prusoff equation [17]. To assess the rate constants, time-resolved measurements were carried out at different concentrations of the labeled ligand. […] All KD and IC50 values, as well as kinetic parameters, were determined from three independently repeated experiments. The figures show one representative measurement; however, the calculated KD, Ki, kon and koff values are presented as an average of the three measurements ± SD. Error bars denote ± SEM.

Test [2] addresses T1, PfFNT wt-GFP. The experiment in a line: FCCS equilibrium saturation binding to solubilized PfFNT wildtype. The note with it: for Active Receptor (%): fraction of PfFNT-GFP involved in binding at saturation; for obtained concentration of complexes in saturation binding: same sample of solubilized membranes for both tracers. The method, then:
A total of 20 µL of solubilized membranes from HEK cells expressing PfFNT wildtype or G107S were transferred to a glass-bottom 384-well microtiter plate and analyzed for expression levels via GFP fluorescence intensity as well as diffusion times. This yielded a PfFNT protein concentration of 10 nM after membrane preparation and solubilization. The average dwell time was determined to 373 µs, which is in good agreement with membrane proteins of equal size. The signal fluctuations could be fitted to a 1-component diffusion model, indicating homogeneously monodisperse proteins (Figure S2).
(§2) Next, we determined inhibitor binding affinities for both PfFNT and its G107S mutant. Solubilized cell membranes containing PfFNT-GFP at a concentration of 10 nM were incubated for 1 h at ambient temperature with increasing concentrations of labeled inhibitor molecules to obtain saturation binding curves and to calculate the dissociation constant (KD) of the interactions. Equilibrium binding experiments were pipetted in biological triplicates and carried out and analyzed as described in Antoine et al..
(§3) A cell pellet was resuspended in 1 mL of ice-cold TBS (50 mM Tris-HCl (pH 7.4) and 150 mM NaCl) supplemented with cOmplete™ Protease Inhibitor Cocktail (cat. no 11697498001, Roche, Switzerland) and broken by sonication on ice, using an Ultrasonic homogenizer SONOPULS HD 2070 (Bandelin, Germany). Cell debris was removed by centrifugation for 5 min at 1100× g at 4 °C, and membranes were harvested from the cleared lysate by subsequent centrifugation at 21,000× g. The resulting pellet containing cellular membranes was lysed using a Dounce homogenizer. The receptor was solubilized by incubation in 1% LMNG (cat. no NG310, Anatrace, USA) or in another detergent (DDM, DM, CHAPS, CHS, LDAO) when conducting tests to determine the best solubilization conditions. The insolubilized membrane material was removed by centrifugation for 1 h at 21,000× g at 4 °C, and the supernatant was collected and directly subjected to FCCS analysis or stored at −80 °C.
as §1

In the next test the target is T2, PfFNT G107S-GFP (Plasmodium falciparum, UniProt O77389, G107S).
T2 construct: The DNA of full-length PfFNT from Plasmodium falciparum 3D7 was cloned as a C-terminal GFP fusion; expressed in transfected cells; intact cells for imaging, LMNG-solubilized membranes for FCCS
The experiment in a line: FCCS equilibrium saturation binding to solubilized PfFNT G107S mutant. On the procedure: as §2
We next performed equilibrium saturation binding assays to assess the binding of both tracers to the mutant PfFNT G107S.
as §3, §1

Where [3] appears, read: fluorescent probe titrated against solubilized PfFNT G107S-GFP.

Where two headings read alike, the source gives them in different places. Where only a bound is given, the exact number is not on record here.

Broadly, the koff is a measure of how fast the partners let go of each other. A word on the kon: it is the second-order rate constant of association. Higher therefore signals fast association.

T1 sequence (O77389 whole entry, the tested form may be a part): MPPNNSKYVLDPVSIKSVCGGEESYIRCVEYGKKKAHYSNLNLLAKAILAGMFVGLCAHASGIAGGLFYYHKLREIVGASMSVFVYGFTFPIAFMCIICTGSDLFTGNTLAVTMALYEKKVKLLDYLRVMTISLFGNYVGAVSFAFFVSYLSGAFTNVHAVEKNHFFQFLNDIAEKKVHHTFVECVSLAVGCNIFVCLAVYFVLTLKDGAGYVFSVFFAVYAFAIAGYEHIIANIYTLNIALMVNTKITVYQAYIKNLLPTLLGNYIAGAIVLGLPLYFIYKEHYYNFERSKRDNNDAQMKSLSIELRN
T2 sequence (O77389 whole entry G107S, the tested form may be a part): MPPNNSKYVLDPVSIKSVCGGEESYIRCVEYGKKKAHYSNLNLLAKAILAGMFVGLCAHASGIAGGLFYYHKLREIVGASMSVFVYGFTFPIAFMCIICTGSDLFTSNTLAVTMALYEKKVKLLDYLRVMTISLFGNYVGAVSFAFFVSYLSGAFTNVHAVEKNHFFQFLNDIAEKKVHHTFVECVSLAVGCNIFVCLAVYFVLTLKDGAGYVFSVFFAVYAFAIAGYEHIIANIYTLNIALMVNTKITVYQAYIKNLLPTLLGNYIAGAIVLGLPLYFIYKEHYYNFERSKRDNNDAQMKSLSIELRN

As for `CCN1/C(=C/C=C/C=C/C2=[N+](CC)c3ccc(S(=O)(=O)O)cc3C2(C)CCCC(=O)NCCOCCOCCOCCOCCC(=O)NCCCOc2ccc(C(=O)/C=C(\O)C(F)(F)C(F)(F)F)cn2)C(C)(C)c2cc(S(=O)(=O)[O-])ccc21` (stereo not shown) [BH267.meta-DY647], at PfFNT wt-GFP [1], the Kd is 0.112 ± 0.005 µM, the koff was 0.0297 s⁻¹ and the kon is 268000 M⁻¹ s⁻¹. For the same compound, on PfFNT wt-GFP [2], the Kd is 0.072 µM and the “Active Receptor (%)” value was 100%. Further, on PfFNT G107S-GFP, the Kd was determined as 0.405 µM. The “Active Receptor (%)” value at PfFNT G107S-GFP (fraction of PfFNT G107S-GFP involved in binding at saturation) was “n.d. 100%”.

For the compound `O=C(/C=C(\O)C(F)(F)C(F)(F)F)c1cccnc1` [BH267.meta], the Kd at PfFNT wt-GFP [1] (koff divided by kon, read-out: KD (Kinetics)) amounted to 0.112 µM; on PfFNT wt-GFP [2] (fluorescent probe titrated against 10 nM PfFNT-GFP, 1% LMNG, 1 h ambient temperature, read-out: KD (equilibrium saturation binding)), 0.072 µM; on PfFNT G107S-GFP (fluorescent probe titrated against solubilized PfFNT G107S-GFP, read-out: KD (equilibrium saturation binding)), 0.405 µM. For the same compound, the “Active Receptor (%)” value on PfFNT wt-GFP [2] was 100%. Besides, the “obtained concentration of complexes in saturation binding” value on PfFNT wt-GFP [2] was determined as 6 nM.

As for `O=C(C=C(O)C(F)(F)C(F)(F)F)c1ccc(O)cc1` [BH296, 4,4,5,5,5-pentafluoro-3-hydroxy-1-(4-hydroxyphenyl)pent-2-en-1-one], the Kd on PfFNT wt-GFP [1] was found to be 0.113 µM; on PfFNT wt-GFP [2] it was 0.067 µM. On PfFNT wt-GFP [2], the “obtained concentration of complexes in saturation binding” value turned out to be 3 nM. For the same compound, the “KD (equilibrium saturation binding)” value on PfFNT G107S-GFP (setting [3]) is “failed to bind within detection limits”.

Turning to `CCN1/C(=C/C=C/C=C/C2=[N+](CC)c3ccc(S(=O)(=O)O)cc3C2(C)CCCC(=O)NCCOCCOCCOCCOCCC(=O)NCCCOc2ccc(C(=O)/C=C(\O)C(F)(F)C(F)(F)F)cc2)C(C)(C)c2cc(S(=O)(=O)[O-])ccc21` (stereo not shown) [BH296-DY647], on PfFNT wt-GFP [1], the Kd turned out to be 0.113 ± 0.002 µM, the dissociation rate constant (koff) is 0.0311 s⁻¹ and the kon is 278000 M⁻¹ s⁻¹. This compound registered a Kd at PfFNT wt-GFP [2] of 0.067 ± 0.006 µM. Besides, at PfFNT G107S-GFP, the Kd is above 2 µM. Further, the “KD (equilibrium saturation binding)” value on PfFNT G107S-GFP (setting [3]) is listed as “no affinity above background”.
